This is an account of results in patent publication EP1372661B1, “GLYCOL DERIVATVES OF XANTHINES FOR TREATING IRRITABLE BOWEL SYNDROME” (SMITHKLINE BEECHAM CORPORATION, priority 2001, dated 2002).

The assay relates to Zymosan-sensitized rats. The assay can be described thus: Rodent model of zymosan-induced hyperalgesia: visceromotor response to colorectal distension. It counts as in vivo, Adult male Sprague-Dawley rats. The note with it: intracolonic zymosan (1 mL, 25 mg/mL), CRD 80 mm Hg, 20 seconds, four hours after zymosan, baseline = 100% of control. An excerpt:
Protocol for Evaluation of (E)-4-(1,3-bis(cyclohexylmethyl)-1,2,3,6-tetrahydro-2,6-dioxo-9H-purin-8-yl)cinnamic acid nonaethylene glycol methyl ether ester in a Rodent Model of Zymosan-Induced Hyperalgesia
Adult male Sprague-Dawley rats (400-425 g) housed 1-2 per cage in the animal care facility at the University of Iowa (approved by the American Association for Accreditation of Laboratory Animal Care). All experimental procedures were approved by the Institutional Animal Care and Use Committee at the University of Iowa.
Rats were deeply anesthetized with pentobarbital sodium (45 mg/kg) administered intraperitoneally. […]
The descending colon and rectum were distended by pressure-controlled inflation of a 7-8-cm-long flexible latex balloon tied around a flexible tube. […] Intracolonic pressure was continuously monitored by the aid of a pressure control device. Response was quantified as the visceromotor response (VMR), a contraction of the abdominal and hindlimb musculature. EMG activity produced by contraction of the external oblique musculature was quantified using Spike2 software (Cambridge Electronic Designs). Each distension trial lasted 60 seconds, and EMG activity was quantitated in 1-second bins for 20 seconds before distension (baseline), during distention, and 20 seconds after distention. The increase in total number of recorded counts during distention is defined as the response. […]

Regarding `COCCOCCOCCOCCOCCOCCOCCOCCOCCOC(=O)/C=C/c1ccc(-c2nc3c([nH]2)c(=O)n(CC2CCCCC2)c(=O)n3CC2CCCCC2)cc1` [(E)-4-(1,3-bis(cyclohexylmethyl)-1,2,3,6-tetrahydro-2,6-dioxo-9H-purin-8-yl)cinnamic acid nonaethylene glycol methyl ether ester], the “response to colorectal distention (CRD) (as a percent of control)” value reads like this: (12.5 mg/kg oral gavage at time 0 and 16 hours) “effectively decreased the response to colorectal distention down to baseline levels”; (25 mg/kg oral gavage at time 0 and 16 hours) “effectively decreased the response to colorectal distention down to baseline levels”.
